Patent US11807607B1, “Aminocarbazole compounds as antibacterial agents” (KING FAISAL UNIVERSITY, priority 2023, dated 2023)
Values after ≈ are worked out from the molar mass of the structure shown. Read-outs that look alike come from different tables or passages of the source.

How the values were obtained:
[1] = test system: Klebsiella pneumonia MTCC 618; test: Antibacterial MIC, CLSI M07-A10 dilution susceptibility test; format: cell-based; settings: Klebsiella pneumoniae, MTCC618
[2] = test system: Escherichia coli MTCC 443; test: as above; format: cell-based; settings: MTCC443
[3] = test system: Bacillus subtilis MTCC 441; test: as above; format: cell-based; settings: MTCC441
[4] = test system: Enterococcus faecium ATCC 51559 (VRE resistant); test: as above; format: cell-based
[5] = test system: Staphylococcus epidermidis; test: as above; format: cell-based
[6] = test system: Pseudomonas aeruginosa MTCC 741; test: as above; format: cell-based; settings: MTCC741
[7] = test system: Enterococcus faecium ATCC 35667; test: as above; format: cell-based; settings: ATCC35667
[8] = test system: Staphylococcus aureus ATCC 29213; test: as above; format: cell-based; settings: ATCC29213
[9] = test system: Staphylococcus aureus ATCC BAA-1556 (MERSA resistant); test: as above; format: cell-based; settings: ATCCBAA1556
[10] = test system: Mycobacterium tuberculosis H37Rv strain; test: Anti-tubercular alamar blue microplate MIC assay; format: cell-based; settings: 168 h, M. tuberculosis H37Rv, 7 days at 37° C., read-out: anti-mycobacterial activity (MIC)
DNA gyrase from E. coli = biological target: T1, DNA gyrase from E. coli (Escherichia coli, UniProt P0AES4+P0AES6); test: Inspiralis E. coli DNA gyrase inhibition assay; format: biochemical
T1 construct: purchased Inspiralis
Description: Inhibitory potencies were investigated utilizing the Inspiralis assay on streptavidin-coated 96-well microtiter plates. First, the plates were rehydrated with buffer (20 mM Tris-HCl with pH 7.6, 0.01% w/v BSA, 0.05% v/v Tween 20, 137 mM NaCl) and the biotinylated oligonucleotide was then immobilized. After washing off the unbound oligonucleotide, the enzyme test was performed. […] Reaction solutions were incubated at 37° C. for 30 min. After that, the TF buffer (50 mM NaOAc with pH 5.0, 50 mM NaCl and 50 mM MgCl2) was added to terminate the enzymatic reaction. After additional incubation for 30 min at rt, during which biotinoligonucleotide-plasmid triplex was formed, the unbound plasmid was washed off using TF buffer and SybrGOLD in T10 buffer (10 mM Tris HCl with pH 8.0 and 1 mM EDTA) was added. The fluorescence was measured with a microplate reader (BioTek Synergy H4, excitation: 485 nm, emission: 535 nm). Initial screening was done at 100 or 10 μM concentration of inhibitors. […] GraphPad Prism software was used to calculate the IC50 values. The result is given as the average value of three independent measurements.

[11] = test system: Gram-positive and Gram-negative bacterial strains, drug sensitive and drug resistant; test: In vitro antibacterial activity evaluation, whole strain panel

T1 sequence (P0AES4 whole entry, one chain of several): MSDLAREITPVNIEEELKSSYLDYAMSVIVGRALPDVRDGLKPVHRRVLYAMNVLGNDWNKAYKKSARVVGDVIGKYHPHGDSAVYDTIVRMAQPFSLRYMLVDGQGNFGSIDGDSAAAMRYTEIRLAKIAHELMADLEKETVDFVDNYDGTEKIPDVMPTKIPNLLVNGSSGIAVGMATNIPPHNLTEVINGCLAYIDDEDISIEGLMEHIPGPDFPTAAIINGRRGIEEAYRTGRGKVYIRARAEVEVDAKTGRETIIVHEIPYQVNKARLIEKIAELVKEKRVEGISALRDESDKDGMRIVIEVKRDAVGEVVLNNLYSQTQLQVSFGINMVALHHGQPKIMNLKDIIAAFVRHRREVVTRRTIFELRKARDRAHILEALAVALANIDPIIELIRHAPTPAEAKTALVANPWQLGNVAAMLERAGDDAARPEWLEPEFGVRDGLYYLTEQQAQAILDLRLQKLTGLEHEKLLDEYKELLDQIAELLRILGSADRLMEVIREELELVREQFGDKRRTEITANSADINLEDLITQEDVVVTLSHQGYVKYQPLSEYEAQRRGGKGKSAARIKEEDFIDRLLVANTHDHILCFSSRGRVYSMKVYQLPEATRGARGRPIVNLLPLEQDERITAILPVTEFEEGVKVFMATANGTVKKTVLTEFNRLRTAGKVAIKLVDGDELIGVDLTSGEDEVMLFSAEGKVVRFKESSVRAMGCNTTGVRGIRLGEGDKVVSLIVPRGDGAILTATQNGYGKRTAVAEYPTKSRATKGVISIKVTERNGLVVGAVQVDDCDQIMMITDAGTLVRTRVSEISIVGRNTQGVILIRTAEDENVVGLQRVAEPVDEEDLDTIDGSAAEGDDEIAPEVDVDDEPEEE

`CN[C@H](CC(C)C)C(=O)N[C@H]1C(=O)N[C@@H](CC(N)=O)C(=O)N[C@H]2C(=O)N[C@H]3C(=O)N[C@H](C(=O)N[C@H](C(=O)O)c4cc(O)cc(O)c4-c4cc3ccc4O)[C@H](O)c3ccc(c(Cl)c3)Oc3cc2cc(c3O[C@@H]2O[C@H](CO)[C@@H](O)[C@H](O)[C@H]2O[C@H]2C[C@](C)(N)[C@H](O)[C@H](C)O2)Oc2ccc(cc2Cl)[C@H]1O` [Vancomycin, reference compound] was tested, and the MIC [1] was greater than 128 µg/mL, the MIC ([2]; Escherichia coli) was greater than 128 µg/mL and the MIC ([3]; Bacillus subtilis) was 0.5 µg/mL (≈ 0.345 µM). For the same compound, the MIC ([4]; Enterococcus faecium) was greater than 128 µg/mL, the MIC [5] was 1 µg/mL (≈ 0.69 µM) and the MIC ([6]; Pseudomonas aeruginosa) was greater than 128 µg/mL. It also gave an MIC ([7]; Enterococcus faecium) of 0.5 µg/mL (≈ 0.345 µM).
`CNc1cc(F)cc2c1[nH]c1ccc(Nc3cccc(C(=O)O)c3)cc12` [Compound 6, 3-((6-fluoro-8-(methylamino)-9H-carbazol-3-yl)amino)benzoic acid] gave an MIC [8] of 0.75 µg/mL (≈ 2.15 µM), an MIC ([1]; Klebsiella pneumonia MTCC 618, read-out: MIC) of 1 µg/mL (≈ 2.86 µM) and an MIC ([2]; Escherichia coli MTCC 443, read-out: MIC) of 32 µg/mL (≈ 91.6 µM). For the same compound, the MIC ([3]; Bacillus subtilis MTCC 441, read-out: MIC) was 0.75 µg/mL (≈ 2.15 µM), the MIC ([4]; Enterococcus faecium ATCC 51559 (VRE resistant), read-out: MIC) was 2 µg/mL (≈ 5.72 µM) and the MIC [9] was 1 µg/mL (≈ 2.86 µM). It also gave an MIC ([5]; read-out: MIC) of 0.5 µg/mL (≈ 1.43 µM), an MIC ([6]; Pseudomonas aeruginosa MTCC 741, read-out: MIC) of 16 µg/mL (≈ 45.8 µM) and an MIC ([7]; Enterococcus faecium ATCC 35667, read-out: MIC) of 1 µg/mL (≈ 2.86 µM).
In the case of `CNc1cc(F)cc2c1[nH]c1ccc(-c3cccc(CC(=O)O)c3)cc12` [Compound 1, 2-(3-(6-fluoro-8-(methylamino)-9H-carbazol-3-yl)phenyl)acetic acid], the MIC [10] is reported as 2 µg/mL (≈ 5.74 µM), the IC50 (DNA gyrase from E. coli) is reported as 80 nM and the “antibacterial activity (in words)” value [11] is reported as “promising antibacterial activity”.
